Results taken from US11261186B2, “Biaryl derivative as GPR120 agonist” (LG CHEM, LTD., priority 2014, dated 2022).
One block for each compound: values may come before it.

Molecular target: T1, hGPR120 (Homo sapiens, UniProt Q5NUL3)
T1 construct: expressed in transfected cells; host or cells: CHO-K1
T1 sequence (Q5NUL3 1-361): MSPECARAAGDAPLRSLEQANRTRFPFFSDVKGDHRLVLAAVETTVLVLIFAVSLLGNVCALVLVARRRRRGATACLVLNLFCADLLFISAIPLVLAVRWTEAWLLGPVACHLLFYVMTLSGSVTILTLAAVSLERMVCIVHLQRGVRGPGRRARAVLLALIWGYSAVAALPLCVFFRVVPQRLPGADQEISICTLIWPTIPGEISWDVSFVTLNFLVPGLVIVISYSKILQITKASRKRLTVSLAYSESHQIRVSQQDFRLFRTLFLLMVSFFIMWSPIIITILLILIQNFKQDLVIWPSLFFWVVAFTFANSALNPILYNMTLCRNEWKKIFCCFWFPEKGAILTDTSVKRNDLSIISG
Test: Measurement of Activity of GPR120 Agonist (Cell-Based Assay), Calcium 5 dye fluorescence
Details: CHO-K1 cells expressing Ga16 and hGPR120
Outline: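 After an 18 h incubation at 37 °C, the transfected CHO-K1 cells (Gα16, hGPR120) received Calcium 5 dye for 1 h; compound dilutions in 0.5% DMSO were then injected and emission at 525 nm recorded, with values given as % of the vehicle response.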

- EC50: < 200 nM
SMILES: O=C(O)CC1CCN(c2c(F)cc(-c3nccc(Oc4ccc(F)c(F)c4)n3)cc2F)CC1 [Example 517, 2-[1-[4-[4-(3,4-difluorophenoxy)pyrimidin-2-yl]-2,6-difluoro-phenyl]-4-piperidyl]acetic acid]

- EC50: < 200 nM
SMILES: Cc1cc2cc(Cl)cc(-c3cc(F)c(OCCCC(=O)O)c(F)c3)c2o1 [Example 518, 4-[4-(5-chloro-2-methyl-benzofuran-7-yl)-2,6-difluoro-phenoxy]-butyric acid]

- EC50: 200 to 2000 nM
SMILES: Cc1cc2cc(Cl)cc(-c3cc(F)c(C(C)CCCC(=O)O)c(F)c3)c2o1 (centres unmarked) [Example 519, 5-[4-(5-chloro-2-methyl-benzofuran-7-yl)-2,6-difluoro-phenyl]-hexanoic acid]

- EC50: 200 to 2000 nM
SMILES: CN(CCCC(=O)O)c1c(F)cc(-c2cccc(OCC3CCC3)c2)cc1F [Example 520, 4-[(3′-cyclobutylmethoxy-3,5-difluoro-biphenyl-4-yl)-methyl-amino]-butyric acid]

- EC50: < 200 nM
SMILES: O=C(O)CCCOc1c(F)cc(-c2cccc(OCC3CCC3)c2)cc1F [Example 521, 4-(3′-cyclobutylmethoxy-3,5-difluoro-biphenyl-4-yloxy)-butyric acid]

- EC50: < 200 nM
SMILES: CN(CCCC(=O)O)c1c(F)cc(-c2cccc(OCC3CCC3)n2)cc1F [Example 522, 4-{[4-(6-cyclobutylmethoxy-pyridin-2-yl)-2,6-difluoro-phenyl]-methyl-amino}-butyric acid]

- EC50: < 200 nM
SMILES: O=C(O)CCCOc1c(F)cc(-c2cccc(OCC3CCC3)n2)cc1F [Example 523, 4-[4-(6-cyclobutylmethoxy-pyridin-2-yl)-2,6-difluoro-phenoxy]-butyric acid]

More lines, now with the values behind:

SMILES: CCN(CC)c1cncc(-c2cc(F)c(N3CCC(CC(=O)O)C3)c(F)c2)n1 (centres unmarked) [Example 506, 2-{1-[2,6-difluoro-4-(6-diethylamino-pyrazin-2-yl)phenyl]pyrrolidin-3-yl}acetic acid]
- EC50: 200 to 2000 nM

SMILES: O=C(O)CCC1CCc2cc(-c3cncc(OC4CCC4)n3)ccc2S1 (centres unmarked) [Example 507, 3-[6-(6-cyclobutoxy-pyrazin-2-yl)-thiochroman-2-yl]-propionic acid]
- EC50: 200 to 2000 nM

SMILES: O=C(O)CC1CCN(c2c(F)cc(-c3nccc(Oc4ccc(Cl)cc4)n3)cc2F)C1 (centres unmarked) [Example 509, 2-[1-[4-[4-(4-chlorophenoxy)pyrimidin-2-yl]-2,6-difluoro-phenyl]-pyrrolidin-3-yl]acetic acid]
- EC50: 200 to 2000 nM

SMILES: O=C(O)CC1CCN(c2c(F)cc(-c3nccc(Oc4ccccc4)n3)cc2F)CC1 [Example 510, 2-[1-[4-[4-phenoxy-pyrimidin-2-yl]-2,6-difluoro-phenyl]-4-piperidyl]acetic acid]
- EC50: < 200 nM

SMILES: O=C(O)CC1CCN(c2c(F)cc(-c3nccc(Oc4ccc(F)cc4)n3)cc2F)CC1 [Example 511, 2-[1-[4-[4-(4-fluorophenoxy)pyrimidin-2-yl]-2,6-difluoro-phenyl]-4-piperidyl]acetic acid]
- EC50: < 200 nM

SMILES: O=C(O)CC1CCN(c2c(F)cc(-c3nccc(Oc4cccnc4)n3)cc2F)CC1 [Example 512]
- EC50: 200 to 2000 nM

SMILES: O=C(O)CC1CCN(c2c(F)cc(-c3cncc(Oc4ccc(F)cc4)n3)cc2F)CC1 [Example 513, 2-[1-[2,6-difluoro-4-[6-(4-fluorophenoxy)pyrazin-2-yl]phenyl]-4-piperidyl]acetic acid]
- EC50: < 200 nM

SMILES: COc1ccc(Oc2ccnc(-c3cc(F)c(N4CCC(CC(=O)O)CC4)c(F)c3)n2)cc1 [Example 514, 2-[1-[4-[4-(4-methoxyphenoxy)pyrimidin-2-yl]-2,6-difluoro-phenyl]-4-piperidyl]acetic acid]
- EC50: 200 to 2000 nM

SMILES: Cc1cc(Oc2ccc(F)cc2)nc(-c2cc(F)c(N3CCC(CC(=O)O)CC3)c(F)c2)n1 [Example 515, 2-[1-[2,6-difluoro-4-[4-(4-fluorophenoxy)-6-methyl-pyrimidin-2-yl]phenyl]-4-piperidyl]acetic acid]
- EC50: 200 to 2000 nM

SMILES: Cc1ccc(Oc2ccnc(-c3cc(F)c(N4CCC(CC(=O)O)CC4)c(F)c3)n2)cc1 [Example 516, 2-[1-[4-[4-(p-tolyloxy)pyrimidin-2-yl]-2,6-difluoro-phenyl]-4-piperidyl]acetic acid]
- EC50: < 200 nM
